Test results as given in PMC9743095 (Journal of Medicinal Chemistry, 2022).
Like-named read-outs stand apart in the source and are kept apart here.

How the values were obtained:
K562 cell line = assay: ATP viability assay; assay type: cell-based; conditions: Homo sapiens
Method: (§1) HL-60 (ATCC CCL-240), K562 (ATCC CCL-243), CCRF-CEM (ATCC CRM-CCL-119), and RL (ATCC CRL-2261) leukemia cell lines were obtained from the American Type Culture Collection (ATCC), Middlesex. HL-60 and K562 cell lines are deoxynucleotidyl transferase-negative (TdT^–ve), whereas CCRF-CEM cell line is TdT^+ve. They were cultured in RPMI-1640 medium (Sigma-Aldrich, U.K.), which were supplemented with 10% fetal bovine serum (FBS) (PAA Laboratories), 1% amphotericin B (5.5 mL), and 1% penicillin/streptomycin (5.5 mL) (PAA Laboratories) and grown in flasks at 37 °C in an incubator with 5% CO2. For the studies with inhibitors, the cells were treated with 10 μM nitrobenzylthioinosine (NBTI, hENT inhibitor) or 1 μM EHNA (EHNA hydrochloride) or A-134974 (A-134974 dihydrochloride hydrate) and left for 5 min before adding the drug. The cells were then incubated for 2 h at 37 °C with 5% CO2.
(§2) The amount of ATP was used as a measurement of cell number and cell viability. ATP ViaLightTM plus assay kit (Lonza: Product No. LT07-121) to detect ATP in cells treated in luminescence compatible 96-well plates (initial concentration of cells was 1 × 10^4 cells/well) with Cordycepin and ProTides at concentrations of 0, 0.1, 0.5, 1, 5, and 10 μM, followed by incubation for 72 h at 37 °C in an incubator with 5% CO2. For inhibitor studies, 10 μM NBTI or 1 μM EHNA or A-134974 was added and left for 5 min before adding the drugs. After incubation, 50 μL of cell lysis reagent was added to the 96-well plates to release the intracellular ATP, followed by 100 μL of ATP monitoring reagent (AMR). The luminescent values of each well were determined using FLUOstar OPTIMA microplate reader (BMG Labtech), which converted ATP into light using luciferase enzyme. Therefore, the amount of luminescence produced was directly proportional to the amount of ATP.

CEM cell line = assay: ATP viability assay; assay type: cell-based; conditions: for CC50: Homo sapiens, CCRF-CEM, read-out: LC50
Method: as §1, §2

HL-60 cell line = assay: ATP viability assay; assay type: cell-based; conditions: Homo sapiens
Method: as §1, §2

[1] = target: T1, adenosine deaminase (ADA) (Bos taurus, UniProt P56658); assay: Adenosine deaminase assay (UV); assay type: in vitro ADME, Bovine; conditions: 62.5 μM
T1 construct: purchased Sigma-Aldrich 59722
T1 sequence (P56658 1-363): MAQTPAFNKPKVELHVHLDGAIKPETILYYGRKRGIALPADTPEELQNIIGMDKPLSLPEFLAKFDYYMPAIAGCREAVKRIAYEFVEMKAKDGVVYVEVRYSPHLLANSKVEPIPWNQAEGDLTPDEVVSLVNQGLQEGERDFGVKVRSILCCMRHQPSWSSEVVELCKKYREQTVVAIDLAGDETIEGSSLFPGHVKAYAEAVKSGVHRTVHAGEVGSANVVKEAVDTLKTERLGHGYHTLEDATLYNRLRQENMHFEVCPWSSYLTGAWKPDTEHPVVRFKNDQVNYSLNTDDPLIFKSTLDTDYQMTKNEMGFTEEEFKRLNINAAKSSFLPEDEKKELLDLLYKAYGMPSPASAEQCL
Method: Bovine recombinant adenosine deaminase (ADA, EC:3.5.4.4) was purchased from Sigma (Sigma-Aldrich, product number 59722). The ADA suspension (containing >2 U/mL) was aliquoted into 55 μL portions and kept at −20 °C. Before use, a 55 μL sample was thawed and 1 mL of phosphate buffer (0.1 N, pH 7.4) was added. The suspension was filtered through a 0.2 μm filter to remove precipitates that could interfere with the absorbance measurements. The clear supernatant was used for the degradation experiments. The experiments were conducted in UV transparent cuvettes (Sigma-Aldrich, code: Z637092) using an Envision microplate reader (PerkinElmer). […] Scans of the absorption spectrum were taken between 220 and 350 nm with 2 nm resolution every 0.1 min over a period of 10 min to 12 h. One sample containing only ADA was also prepared, and this was subtracted to obtain the spectrum over time for substrates.

Plasma stability = assay type: in vitro ADME, beagle dog; conditions: dog plasma, with or without EHNA
Method: Plasma samples (10 mL of human, beagle dog, mouse, or rats from Sera laboratories, U.K.) were treated with and without 1 μM of EHNA, after which 20 μM concentration of each drug (3′dA and ProTides) was added and incubated for 2 h at 37 °C with 5% CO2. After incubation, 100 μL of each sample was taken and 300 μL of 100% methanol was added and left on ice for 30 min. After 30 min, the mixture was centrifuged (14 000 rpm, 4 °C, 10 min), and the supernatant was transferred to new tubes and evaporated under SpeedVac. Then, the dried extract was reconstituted in 100 μL of 10% acetonitrile, then transferred to LC-MS vials, and 10 μL was injected into the UPLC-MS/MS system.

[2] = Metabolic stability in cryopreserved human hepatocytes; assay type: in vitro ADME; conditions: for hepatocyte CLint at 1 μM: pH 7.3, read-out: Clint (intrinsic clearance)
Method: The assay was contracted and performed by Cerep (Seattle, WA Laboratories, 15318 N. E. 95th Street Redmond, WA, 98052) according to the published procedure (Cerep ref 1432). Pooled cryopreserved hepatocytes were thawed, washed, and resuspended in Krebs–Heinslet buffer (pH 7.3). The reaction was initiated by adding the test compound (1 μM final concentration) into cell suspension and incubated in a final volume of 100 μL on a flat-bottom 96-well plate for 0 and 60 min, respectively, at 37 °C/5% CO2. The reaction was stopped by adding 100 μL of acetonitrile into the incubation mixture. Samples were then mixed gently and briefly on a plate shaker, transferred completely to a 0.8 mL V-bottom 96-well plate, and centrifuged at 2550g for 15 min at room temperature. Each supernatant (150 μL) was transferred to a clean cluster tube, followed by high-performance liquid chromatography–tandem mass spectrometry (HPLC-MS/MS) analysis on a Thermo Electron triple quadrupole system.

[3] = pH 7.3, read-out: t1/2 (half-life)

SMILES	CC50 (K562 cell line; K562, 72 h, read-out: LC50) [µM]	improvement of LC50 on inhibition of ADA with EHNA (CEM cell line; CEM) [fold]	CC50 (CEM cell line; 72 h) [µM]	CC50 (CEM cell line) [µM]	CC50 (HL-60 cell line; HL-60, 72 h, read-out: LC50) [µM]	time to complete metabolic deamination by ADA ([1]; bovine, pH 7.4)	stability in plasma (Plasma stability)	hepatocyte CLint at 1 μM [2] [µL/min/1e6 cells]	half-life at 1 μM [2, 3] [min]	half-life at 1 h, 1 µM [2, 3] [min]	CC50 (K562 cell line; K562, Table S2, no inhibitors, 72 h, read-out: LC50 (the source's name)) [µM]	CC50 (HL-60 cell line; HL-60, Table S2, no inhibitors, 72 h, read-out: LC50 (the source's name)) [µM]	hepatocyte CLint at 1 μM ([2]; pooled cryopreserved hepatocytes) [µL/min/1e6 cells]	half-life at 1 h, 1 µM ([2]; pooled cryopreserved hepatocytes, pH 7.3, read-out: t1/2 (half-life)) [min]	LC50 change on ADA inhibition by EHNA (CEM cell line; CEM)	UV absorbance spectra in absence and presence of ADA ([1]; ADA from calf, phosphate buffer pH 7.4, 25 °C, 12 h)	shift of the maximum absorption after ADA addition (deamination) ([1]; up to 2 h)
Nc1ncnc2c1ncn2[C@@H]1O[C@H](CO)C[C@H]1O [3′-dA, 3′-Deoxyadenosine, reference compound]	10.9	16	19.5	11.5	11.4	up to 2 minutes	like those found in human plasma	–	–	–	–	–	–	–	–	–	–
CCOC(=O)CCc1ccccc1OP(=O)(N[C@@H](C)C(=O)OCc1ccccc1)OC[C@@H]1C[C@@H](O)[C@H](n2cnc3c(N)ncnc32)O1 (some centres unmarked) [Compound 7e]	–	–	4.3	–	–	–	–	41.1	26	25.6	6.3	8.3	–	–	–	–	–
C[C@H](NP(=O)(OC[C@@H]1C[C@@H](O)[C@H](n2cnc3c(N)ncnc32)O1)Oc1ccccc1)C(=O)OCc1ccccc1 (stereo partly drawn) [Compound 7a, (Rp)- and (Sp)-3′-Deoxyadenosine 5′-O-phenyl-(benzoxy-L-alaninyl)-phosphate]	2.4	–	0.87	1.4	4.6	–	like those found in human plasma	–	–	–	–	–	22.6	48.1	did not lead to any LC50 changes	the two lines are superimposed	no shift of the maximum absorption at 265 nm
